Data from patent US6608061B2, “Bisaryl compound and medicament for cancer treatment comprising the same” (Kyoma Hakko Kogyo Co., Ltd., priority 1997, dated 2003).
pIC50: −log10 of the molar value. Read-outs that look alike come from different tables or passages of the source.

What was measured:
[1] = biological target: T1, human RNR (purified R1 and R2 subunits) (Homo sapiens, UniProt P23921+P31350); assay: In vitro measurement of human RNR inhibitory activity (conversion of CDP to dCDP, HPLC); assay type: biochemical; conditions: 100 μM CDP, 37° C., 30 minutes, read-out: RNR Inhibition (IC50)
T1 construct: made in house; host or cells: Escherichia coli BL21(λDE3)pLysS, plasmids pETR1 and pETR2 (pET3a backbone)
T1 sequence (P23921 1-792): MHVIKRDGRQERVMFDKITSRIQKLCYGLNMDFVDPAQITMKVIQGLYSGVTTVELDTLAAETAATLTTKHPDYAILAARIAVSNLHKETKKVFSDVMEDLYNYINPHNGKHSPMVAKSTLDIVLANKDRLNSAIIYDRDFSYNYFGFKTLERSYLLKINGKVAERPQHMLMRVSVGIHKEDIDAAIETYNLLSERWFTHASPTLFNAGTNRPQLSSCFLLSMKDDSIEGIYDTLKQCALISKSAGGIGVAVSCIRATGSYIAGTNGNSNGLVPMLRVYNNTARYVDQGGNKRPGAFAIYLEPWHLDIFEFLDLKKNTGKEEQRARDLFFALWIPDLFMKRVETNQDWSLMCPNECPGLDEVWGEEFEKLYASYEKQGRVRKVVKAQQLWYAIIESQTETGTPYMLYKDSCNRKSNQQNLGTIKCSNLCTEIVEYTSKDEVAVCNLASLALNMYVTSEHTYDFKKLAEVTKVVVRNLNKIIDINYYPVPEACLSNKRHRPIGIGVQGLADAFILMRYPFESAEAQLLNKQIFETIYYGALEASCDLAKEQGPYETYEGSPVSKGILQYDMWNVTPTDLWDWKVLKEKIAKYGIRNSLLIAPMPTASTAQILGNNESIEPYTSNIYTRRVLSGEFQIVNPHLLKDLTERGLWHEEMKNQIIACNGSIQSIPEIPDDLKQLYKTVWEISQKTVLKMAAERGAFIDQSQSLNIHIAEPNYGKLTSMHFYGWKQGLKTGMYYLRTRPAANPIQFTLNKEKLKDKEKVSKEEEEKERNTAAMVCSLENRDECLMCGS
T1 sequence (P31350 1-389): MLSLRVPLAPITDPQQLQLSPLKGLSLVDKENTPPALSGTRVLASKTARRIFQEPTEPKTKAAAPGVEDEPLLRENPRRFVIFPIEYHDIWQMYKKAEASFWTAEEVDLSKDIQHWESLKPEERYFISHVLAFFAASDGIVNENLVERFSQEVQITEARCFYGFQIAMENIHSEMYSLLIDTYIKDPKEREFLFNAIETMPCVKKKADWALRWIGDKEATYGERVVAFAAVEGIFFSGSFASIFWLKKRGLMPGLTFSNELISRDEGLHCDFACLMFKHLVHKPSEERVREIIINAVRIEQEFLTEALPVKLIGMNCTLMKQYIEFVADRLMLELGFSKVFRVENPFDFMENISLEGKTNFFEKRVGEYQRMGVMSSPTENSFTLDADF

HeLa S3 cells = assay: Test for growth inhibition of HeLa S3 cells; assay type: cell-based; conditions: for pIC50: HeLa S3 cells, 72 hours with test compound, Cell Proliferation Kit II, read-out: Cell growth inhibition (IC50)
Description: Test for Growth Inhibition of Hela S3 Cells
HeLa S3 cells prepared at 1×10^4 cells/ml in MEM culture medium containing 10% fetal bovine serum and 2 mM glutamine were added to each well of a 96-well microtiter plate (0.1 ml for each well). The cells were cultured at 37° C. in a CO2 incubator for 24 hours, and then 0.05 ml of test compound appropriately diluted with the above medium was added to each well, and then the mixture was cultured at 37° C. in a CO2 incubator for 72 hours. After the culture supernatant was removed, each well was washed with 0.1 ml of PBS buffer twice, and 0.1 ml of the aforementioned medium was added to each well again.
Cell Proliferation Kit II (Boehringer Mennheim) was used for measurement of cell number in each well. After a coloring reaction reagent was added, the plate was warmed to 37° C. in a CO2 incubator for 3 hours. Then, absorbances at 490 nm and 655 nm were measured by a microplate reader, and a value (difference of absorbance) was calculated for each well by subtracting the absorbance at […] from the absorbance at 490 nm. By comparing the differences of absorbance for cells without treatment and cells treated with a test compound at a known concentration, a concentration of test compound which inhibited the cell growth by 50% was calculated, and the value obtained was determined as IC50. The values of RNR inhibitory activity obtained in Example 8, and the values of cell growth inhibitory activity obtained in Example 9 are shown in the following tables (the compound numbers used in the tables correspond to the compound numbers shown in the aforementioned tables).

[2] = test system: human ovary cancer A2780 cells; assay: Antineoplastic effect against human ovary cancer A2780 cells transplanted to nude mice; assay type: in vivo, nude mice BALB/cAJcl-nu; conditions: Mus musculus, read-out: Antitumor activity T/C
Text: Antineoplastic Effect Against Human Ovary Cancer A2780 Cells
2 mm cubes (tumor fragments of 8 mm^3) of human ovary cancer A2780 cells were subcutaneously transplanted to nude mice BALB/cAJcl-nu (CLEA JAPAN) in the abdomens. When the tumor volume reached to from 50 to 300 mm^3 after the transplantation, the mice were arbitrarily divided into groups each consisting of 5 mice, and intraperitoneally administered with a drug solution once a day for 5 days. After weighing compounds, the drug solution was prepared before use by dissolving the drug in 99.5% ethanol (final concentration: 5%, analytical grade, Kanto Kagaku) or N,N-dimethylacetamide (final concentration: 5%, analytical grade, Kanto Kagaku), adding CREMOPHOR EL (a derivative of caster oil and ethylene oxide, final concentration: 10%, Sigma Chemical) to the solution, and suspending the solution in physiological saline (Otsuka Physiological Saline for Injection, Otsuka Pharmaceutical). For evaluation of the effect, a tumor volume was calculated in accordance with Equation 1, a ratio of tumor volume (V) after the administration of drug solution to tumor volume (V0) before the administration of drug solution was calculation (V/V0), and the ratio was compared with that for the untreated group to determine T/C (Equation 2). In the table, administration dose, T/C and evaluation day are shown. [formula]

[3] = test system: human lung cancer Lu-65 cells; assay: Antineoplastic effect against human lung cancer Lu-65 cells transplanted to nude mice; assay type: in vivo, nude mice BALB/cAJcl-nu; conditions: Lu-65 s.c. in nude mice; 1000 (500 × 2) mg/kg/day intraperitoneally twice a day for 5 days; evaluation day 7
Text: Antineoplastic Effect Against Human Lung Cancer Lu-65 Cells
2 mm cubes (tumor fragments of 8 mm^3) of human lung cancer Lu-65 cells were subcutaneously transplanted to nude mice BALB/cAJcl-nu (CLEA JAPAN) on their abdomens. When the tumor volume reached to from 50 to 300 mm^3 after the transplantation, the mice were arbitrarily divided into groups each consisting of 5 mice, and intraperitoneally administered with a drug solution twice a day for 5 days. After weighing compounds, the drug solution was prepared before use by dissolving the drug in 99.5% ethanol (final concentration: 5%, analytical grade, Kanto Kagaku), adding CREMOPHOR EL (a derivative of caster oil and ethylene oxide, final concentration: 10%, Sigma Chemical) to the solution, and suspending the solution in physiological saline (Otsuka Physiological Saline for Injection, Otsuka Pharmaceutical). For evaluation of the effect, a tumor volume was calculated in accordance with Equation 1, a ratio of tumor volume (V) after the administration of drug solution to tumor volume (V0) before the administration of drug solution was calculated (V/V0), and the ratio was compared with that for the untreated group to determine T/C (Equation 2). [formula]

[4] = ip, 96 h, A2780 s.c. in nude mice, 500 mg/kg/day intraperitoneally once a day for 5 days, evaluation day 4
[5] = ip, 168 h, A2780 s.c. in nude mice, 500 mg/kg/day intraperitoneally once a day for 5 days, evaluation day 7

pIC50 [1]	pIC50 (HeLa S3 cells; Homo sapiens, HeLa S3, 72 h)	SMILES	response vs control in vivo at 500 mg/kg/day [2, 4]	further results
6.51	5.79	NC(=O)CCN(CCSc1ccc(O)cc1)CCSc1ccc(O)cc1 [Compound 78]	53%	–
5.86	5.51	CN(C)C(=O)CCN(CCSc1ccc(O)cc1)CCSc1ccc(O)cc1 [Compound 79]	40%	–
6.34	5.40	Oc1ccc(CN(CCSc2ccc(O)cc2)CCSc2ccc(O)cc2)cc1 [Compound 94]	–	response vs control in vivo at 500 mg/kg/day [2, 5]: 53%
6.16	5.85	OCCN(CCSc1ccc(O)cc1)CCSc1ccc(O)cc1 [Compound 102]	–	response vs control in vivo at 500 mg/kg/day [2, 5]: 47%
5.68	5.76	COCCCN(CCSc1ccc(O)cc1)CCSc1ccc(O)cc1 [Compound 103]	50%	–
5.57	5.51	NC(=O)C1CCCCN1C(=O)CN(CCSc1ccc(O)cc1)CCSc1ccc(O)cc1 (stereo not shown) [Compound 209]	–	response vs control in vivo at 500 mg/kg/day [2, 5]: 50%

The next lines start with the compound.

SMILES	pIC50 [1]	pIC50 (HeLa S3 cells; Homo sapiens, HeLa S3, 72 h)	response vs control in vivo at 500 mg/kg/day [2, 4]	further results
Oc1ccc(SCCOCCSc2ccc(O)cc2)cc1 [Compound 27]	6.30	–	–	IC50 (HeLa S3 cells; Homo sapiens, HeLa S3, 72 h, read-out: Cell growth inhibition (IC50, μM)): 1.53 µM; response vs control in vivo at 500 mg/kg/day ([2]; A2780, ip, 168 h): 46%; Antitumor activity T/C [3]: 0.25
CCCN(CCSc1ccc(O)cc1)CCSc1ccc(O)cc1 [Compound 72]	5.92	5.66	50%	–
N#CCN(CCSc1ccc(O)cc1)CCSc1ccc(O)cc1 [Compound 77]	7.22	5.62	54%	–
Oc1ccc(SCCN(CCSc2ccc(O)cc2)Cc2ccncc2)cc1 [Compound 91]	5.77	5.57	48%	–
NC(=O)CN(CCSc1ccc(O)cc1)CCSc1ccc(O)cc1 [Compound 97]	–	–	–	pIC50 (HeLa S3 cells): 6.06; response vs control in vivo at 500 mg/kg/day [2, 5]: 43%; melting point: 105 to 106 °C
Oc1ccc(SCCN(CCSc2ccc(O)cc2)Cc2ccccn2)cc1 [Compound 100]	5.80	5.30	–	melting point: 80 to 81 °C
Oc1ccc(SCCOCCSc2ccc(O)c(F)c2)cc1F [Compound 190]	5.86	4.77	–	melting point: 87 to 88 °C
O=C(CN(CCSc1ccc(O)cc1)CCSc1ccc(O)cc1)Nc1ncccn1 [Compound 211]	5.49	5.52	–	response vs control in vivo at 500 mg/kg/day ([2]; ip, 216 h, A2780 s.c. in nude mice, 500 mg/kg/day intraperitoneally once a day for 5 days, evaluation day 9): 37%
